These results are taken from ChEMBL document CHEMBL1143054, “Antimalarial linear lipopeptides from a Panamanian strain of the marine cyanobacterium Lyngbya majuscula” (J Nat Prod, 2007).

Non-standard residues stand in square brackets, D forms with d. Residues, ends and D or L forms follow the SMILES beside them. *: point of attachment. NMeY = CN[C@@H](Cc1ccc(O)cc1)C(=O)O; NMeF = CN[C@@H](Cc1ccccc1)C(=O)O; NMeV = CN[C@H](C(=O)O)C(C)C; X1 = C#CCCCCC(C)CC(C)C(=O)*; X2 = C#CCCCC[C@H](C)C(=O)*; NMeA = CN[C@@H](C)C(=O)O

Test [1] concerns Plasmodium falciparum. In words: Antimalarial activity against chloroquine-resistant Plasmodium falciparum W2 by fluorimetry. It counts as functional, organism-based.
For test [2], the system named is Vero. In words: Cytotoxicity against Vero cells after 4 hrs. Particulars: Chlorocebus sabaeus. It counts as cell-based.

Take `C#CCCCC[C@H](C)C(=O)N(C)[C@@H](Cc1ccccc1)C(=O)N[C@@H](C)C(=O)N(C)[C@@H](C)C(=O)N(C)[C@@H](Cc1ccc(OC)cc1)C(N)=O` [DRAGOMABIN] (X2-[NMeF]A[NMeA][NMeY](Me)-NH2): the figures for the IC50 in test [1] and in test [2] were 21 µM and 182 µM, respectively.

On to `C#CCCCCC(C)CC(C)C(=O)N(C)[C@@H](Cc1ccccc1)C(=O)N[C@@H](C)C(=O)N(C)[C@@H](C)C(=O)N(C)[C@@H](Cc1ccc(OC)cc1)C(N)=O` (stereo partly specified) [CARMABIN A] (X1-[NMeF]A[NMeA][NMeY](Me)-NH2), for which the IC50 in test [1] amounted to 1.4 µM; in test [2] it was 9.8 µM.

For the compound `C#CCCCC[C@H](C)C(=O)N(C)[C@H](C(=O)N(C)[C@H](C(=O)N(C)[C@H](C(=O)N(C)[C@@H](Cc1ccccc1)C(N)=O)C(C)C)C(C)C)C(C)C` [DRAGONAMIDE A] (X2-[NMeV][NMeV][NMeV][NMeF]-NH2), the IC50 was found to be 10.7 µM in test [1] and 67.8 µM in test [2].

A word on the IC50: it is the concentration needed to halve the response being measured. A higher IC50 goes with weaker potency.
